Experimental data: ChEMBL document CHEMBL5550180, “Enhancing anti-cancer capacity: Novel class I/II HDAC inhibitors modulate EMT, cell cycle, and apoptosis pathways” (Bioorg Med Chem, 2024)
Activity calls are given as the source filed them. The calls are words filed in the database; no cut-off is given here.

Columns and labels:
[1] = Toxicity in zebrafish embryo at […] measured after 96 hrs post fertilization; set-up: species or system Danio rerio; details: in vivo
[2] = target: T1, Histone deacetylase (Homo sapiens) (UniProt Q13547+O15379+Q9UBN7+Q92769+Q9UQL6+Q8WUI4+Q9BY41+Q96DB2+P56524+Q9UKV0+Q969S8); assay: Inhibition of HDAC in human HT-29 cells assessed as increase in acetyl alpha-tubulin level at 2.5 to 5 uM incubated for 48 hrs by Western blot analysis; type: cell-based; details: dose 2.5-5 µM
HT-29 [3] = assay: Inhibition of cell migration in human HT-29 cells assessed as upregulation of E-cadherin level at 2.5 to 5 uM incubated for 48 hrs by Western blot analysis; type: functional, cell-based; details: dose 2.5-5 µM
HT-29 [4] = assay: Inhibition of cell migration in human HT-29 cells at 1.25 uM measured at 48 hrs by wound healing assay (reference value: 73.2%); type: functional
A549 [5] = assay: Induction of cell cycle arrest in human A549 cells assessed as accumulation at sub G1 at 5 to 10 uM incubated for 24 to 48 hrs by PI-staining based flow cytometric analysis; type: functional; details: dose 5-10 µM, time 24-48 hrs
[6] = Toxicity in zebrafish embryo assessed as effect on body length at 1 to 5 uM measured after 96 hrs post fertilization by microscopic analysis; set-up: species or system Danio rerio; details: in vivo, dose 1-5 µM
A549 [7] = assay: Induction of cell cycle arrest in human A549 cells assessed as effect on cyclin B1 level at 5 to 10 uM incubated for 48 hrs by Western blot analysis; type: functional, cell-based; details: dose 5-10 µM
HT-29 [8] = assay: cells; type: functional, cell-based; details: Homo sapiens, HT-29, 48 h
Description: Anticancer activity against human HT-29 cells assessed as inhibition of cell growth measured for 48 hrs by MTT assay

A549 [9] = assay: Induction of cell cycle arrest in human A549 cells assessed as effect on p21 level at 5 to 10 uM incubated for 48 hrs by Western blot analysis; type: functional, cell-based; details: dose 5-10 µM
HT-29 [10] = assay: Inhibition of colony formation in human HT-29 cells at 125 to 250 nM measured for 10 days by crystal violet staining based analysis; type: functional, cell-based; details: dose 125-250 nM, time 10.0 day
A549 [11] = assay: Induction of apoptosis in human A549 cells assessed as upregulation of p53 expression at 5 to 10 uM incubated for 48 hrs by Western blot analysis; type: functional, cell-based; details: dose 5-10 µM
[12] = Toxicity in zebrafish embryo assessed as formation of scoliosis at 1 to 5 uM measured after 96 hrs post fertilization by microscopic analysis; set-up: species or system Danio rerio; details: in vivo, dose 1-5 µM
HT-29 [13] = assay: Inhibition of cell migration in human HT-29 cells at 1.25 uM measured immediately by wound healing assay (reference value: 100%); values are per cent of control
HT-29 [14] = assay: Anticancer activity against human HT-29 cells assessed as suppression of cell viability at 10 uM incubated for 48 hrs by MTT assay; type: functional, cell-based
NCI-H1299 = assay: Anticancer activity against human NCI-H1299 cells assessed as reduction in cell viability at 10 to 40 uM incubated for 48 hrs by MTT assay; type: functional, cell-based; details: dose 10-40 µM
A549 [15] = assay: Anticancer activity against human A549 cells assessed as suppression of cell viability at 10 uM incubated for 48 hrs by MTT assay; type: functional, cell-based
A549 [16] = assay: Induction of apoptosis in human A549 cells assessed as increase in caspase 3 level at 5 to 10 uM incubated for 48 hrs by Western blot analysis; type: functional, cell-based; details: dose 5-10 µM
A549 [17] = assay: Inhibition of cell migration in human A549 cells at 2.5 uM measured at 48 hrs by wound healing assay (reference value: 42.3%); values are per cent of control; details: A549, 48 h
A549 [18] = assay: Anticancer activity against human A549 cells assessed as viable cells by measuring green fluorescence intensity measured for 48 hrs by Calcein AM staining based fluorescent microscopic analysis; type: functional, cell-based; details: dose 1-20 µM
A549 [19] = assay: Inhibition of cell migration in human A549 cells at 2.5 uM measured immediately by wound healing assay (reference value: 100%); values are per cent of control
HT-29 [20] = assay: Anticancer activity against human HT-29 cells assessed as viable cells by measuring green fluorescence intensity measured for 48 hrs by Calcein AM staining based fluorescent microscopic analysis; type: functional, cell-based; details: dose 1-20 µM
[21] = target: T1, Histone deacetylase (Homo sapiens); assay: Inhibition of HDAC in human HT-29 cells assessed as increase in histone acetylation level at 2.5 to 5 uM incubated for 48 hrs by Western blot analysis; type: cell-based; details: dose 2.5-5 µM
A549 [22] = assay: Inhibition of cell migration in human A549 cells at 2.5 uM measured at 24 hrs by wound healing assay (reference value: 68.4%); values are per cent of control; details: A549, 24 h
A549 [23] = assay: Anticancer activity against human A549 cells cultured as 3D spheroids assessed as suppression of cell growth at 10 uM incubated for 48 hrs by celltiter-glo luminescent assay; type: functional, cell-based
[24] = Toxicity in zebrafish embryo assessed as hatching rate at 1 to 5 uM measured after 72 hrs post fertilization by microscopic analysis; set-up: species or system Danio rerio; details: in vivo, dose 1-5 µM
HT-29 [25] = assay: Anticancer activity against human HT-29 cells cultured as 3D spheroids assessed as suppression of cell growth at 10 uM incubated for 48 hrs by celltiter-glo luminescent assay; type: functional, cell-based
[26] = Toxicity in zebrafish embryo assessed as survival rate at 1 to 5 uM measured after 72 hrs post fertilization; set-up: species or system Danio rerio; details: in vivo, dose 1-5 µM
A549 [27] = assay: cells; type: functional, cell-based; details: Homo sapiens, A549, 48 h
Description: Anticancer activity against human A549 cells assessed as inhibition of cell growth measured for 48 hrs by MTT assay

[28] = Toxicity in zebrafish embryo assessed as yolk sac edema at 1 to 5 uM measured after 96 hrs post fertilization by microscopic analysis; set-up: species or system Danio rerio; details: in vivo, dose 1-5 µM
HT-29 [29] = assay: Inhibition of cell migration in human HT-29 cells assessed as downregulation of vimentin level at 2.5 to 5 uM incubated for 48 hrs by Western blot analysis; type: functional, cell-based; details: dose 2.5-5 µM
A549 [30] = assay: Inhibition of colony formation in human A549 cells at 250 to 500 nM measured for 10 days by crystal violet staining based analysis; type: functional, cell-based; details: dose 250-500 nM, time 10.0 day
[31] = target: T1, Histone deacetylase (Homo sapiens); assay: Inhibition of HDAC in human A549 cells incubated for 48 hrs by Western blot analysis; type: cell-based; details: dose 0.1-10 µM
HT-29 [32] = assay: Inhibition of cell migration in human HT-29 cells assessed as downregulation of slug level at 2.5 to 5 uM incubated for 48 hrs by Western blot analysis; type: functional, cell-based; details: dose 2.5-5 µM
HT-29 [33] = assay: Inhibition of cell migration in human HT-29 cells at 1.25 uM measured at 24 hrs by wound healing assay (reference value: 85.7%); values are per cent of control; details: HT-29, 24 h
A549 [34] = assay: Induction of apoptosis in human A549 cells assessed as increase in PARP level at 5 to 10 uM incubated for 48 hrs by Western blot analysis; type: functional, cell-based; details: dose 5-10 µM
[35] = target: T1, Histone deacetylase (Homo sapiens); assay: Inhibition of HDAC in human HT-29 cells incubated for 48 hrs by Western blot analysis; type: cell-based; details: dose 0.1-10 µM

## NC(=O)NO [HYDROXYUREA]
[1]
  Activity: Toxic

## Nc1ccccc1NC(=O)c1ccc(Cc2cn(S(=O)(=O)c3ccccc3)c3ccccc23)cc1
[2]
  inhibition: Active
HT-29 [3]
  inhibition: Active
HT-29 [4]
  inhibition at 1.25 µM: 82.1%
A549 [5]
  Activity: Active
[6]
  Activity: Non-Toxic
A549 [7]
  Activity: Active
HT-29 [8]
  IC50: 1.92 µM
A549 [9]
  Activity: Active
HT-29 [10]
  inhibition: Active
A549 [11]
  Activity: Active
[12]
  Activity: Non-Toxic
HT-29 [13]
  wound area remaining at 1.25 µM: 100%
HT-29 [14]
  Activity: Active
NCI-H1299
  Activity: Active
A549 [15]
  Activity: Active
A549 [16]
  Activity: Active
A549 [17]
  wound area remaining at 2.5 µM: 53.6%
A549 [18]
  Activity: Dose-Dependent Effect
A549 [19]
  wound area remaining at 2.5 µM: 100%
HT-29 [20]
  Activity: Dose-Dependent Effect
[21]
  inhibition: Active
A549 [22]
  wound area remaining at 2.5 µM: 75.8%
A549 [23]
  Activity: Active
[24]
  Activity: 100%
HT-29 [25]
  Activity: Active
[26]
  survival at 72 h, up to 5 µM: ~100%
A549 [27]
  IC50: 4.86 µM
[28]
  Activity: Non-Toxic
HT-29 [29]
  inhibition: Active
A549 [30]
  inhibition: Active
[31]
  inhibition: Active
HT-29 [32]
  inhibition: Active
HT-29 [33]
  wound area remaining at 1.25 µM: 89.6%
A549 [34]
  Activity: Active
[35]
  inhibition: Active
